Experimental data reported in patent publication US20260223850A1, “SUBSTITUTED PYRROLIDONE COMPOUND, PREPARATION METHOD THEREFOR, COMPOSITION AND APPLICATION THEREOF” (QINGDAO KINGAGROOT CHEMICAL COMPOUND CO., LTD., priority 2023, published 2026).

How the values were obtained:
Format in all cases: in vivo
Echinochloa phyllopogon = assay: Seedling stage sealing experiment for water-seeding; conditions: 120 g a.i./ha, 15 days, fresh weight control rate
Outline: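 Scores (0 = no effect to 9 = dead) reflect fresh-weight control rate 15 days after spray application in greenhouse at 15, 30, 60 or 120 g a.i./ha, mean of three replicates. Seeds were broadcast and soil-covered in pots held moist in water-filled cultivation boxes.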

Echinochloa crusgalli = assay: as above; conditions: 120 g a.i./ha, 15 days, fresh weight control rate
Huaidao (rice cultivar) = assay: Seedling stage sealing experiment for water-seeding (crop safety); conditions: 120 g a.i./ha, 15 days, fresh weight control rate; for Huaidao (rice cultivar) plant damage level: seedling stage sealing; for Huaidao (rice cultivar) plant damage level (growth control rate): spray, seedling stage sealing for water-seeding
From the text: The activity level criteria for plant damage (i.e., growth control rate) are as follows: • Level 9: completely dead; • Level 8: growth control rate greater than or equal to 90% and less than 100%; • Level 7: growth control rate greater than or equal to 80% and less than 90%; • Level 6: growth control rate greater than or equal to 70% and less than 80%; • Level 5: growth control rate greater than or equal to 50% and less than 70%; • Level 4: growth control rate greater than or equal to 30% and less than 50%; • Level 3: growth control rate greater than or equal to 20% and less than 30%; • Level 2: growth control rate greater than or equal to 10% and less than 20%; • Level 1: growth control rate less than 10%; • Level 0: no effect.
The above growth control rates are fresh weight control rates.
Echinochloa phyllopogon, Digitaria sanguinalis, Huaidao (rice cultivar), etc. were broadcasted on the surface of nutrition bowls filled with soil and fully covered by soil. The foregoing well-prepared nutrition bowls were then placed in a cultivation box with water filled to a suitable height to keep the soil in the nutrition bowls moist. A test compound of the present invention was individually dissolved with acetone, then diluted into solution of a certain concentration using a certain amount of water, and sprayed using a spray tower. The plants were placed on a greenhouse seedbed and cultured for 15 days, and the experimental results were then collected. The compound was applied at 120, 60, 30 and 15 g a.i./ha in triplicate, and the results were averaged.

[1] = spray, seedling stage sealing for water-seeding

COCn1ncc(NC(=O)[C@H]2C(=O)N(C)C[C@@H]2c2cc(C)cc(C)c2)c1Cl [422′]
Echinochloa phyllopogon activity level (growth control rate) (Echinochloa phyllopogon; seedling stage sealing): 9
Echinochloa crusgalli activity level (growth control rate) (Echinochloa crusgalli; seedling stage sealing): 9
Huaidao (rice cultivar) plant damage level (Huaidao (rice cultivar)): 1 (Level 1: growth control rate less than 10%)

COCCn1ncc(NC(=O)[C@H]2C(=O)N(C)C[C@@H]2c2cc(C)cc(C)c2)c1Cl [423′]
Echinochloa phyllopogon activity level (growth control rate) (Echinochloa phyllopogon; seedling stage sealing): 6 (Level 6: growth control rate greater than or equal to 70% and less than 80%)
Echinochloa crusgalli activity level (growth control rate) (Echinochloa crusgalli; seedling stage sealing): 9
Huaidao (rice cultivar) plant damage level (Huaidao (rice cultivar)): 0

Cc1cc(C)cc([C@H]2CN(C)C(=O)[C@@H]2C(=O)Nc2cnn(C)c2I)c1 [426′]
Echinochloa phyllopogon activity level (growth control rate) (Echinochloa phyllopogon; seedling stage sealing): 9
Echinochloa crusgalli activity level (growth control rate) (Echinochloa crusgalli; seedling stage sealing): 9
Huaidao (rice cultivar) plant damage level (Huaidao (rice cultivar)): 0

Cc1cc(C)cc([C@H]2CN(C)C(=O)[C@@H]2C(=O)Nc2cnn(C)c2C(F)(F)F)c1 [427′]
Echinochloa phyllopogon activity level (growth control rate) (Echinochloa phyllopogon; seedling stage sealing): 9
Echinochloa crusgalli activity level (growth control rate) (Echinochloa crusgalli; seedling stage sealing): 9
Huaidao (rice cultivar) plant damage level (Huaidao (rice cultivar)): 2 (Level 2: growth control rate greater than or equal to 10% and less than 20%)

CCn1ncc(NC(=O)[C@H]2C(=O)N(C)C[C@@H]2c2cc(C)cc(C)c2)c1C1CC1 [432′]
Echinochloa phyllopogon activity level (growth control rate) (Echinochloa phyllopogon; seedling stage sealing): 9
Echinochloa crusgalli activity level (growth control rate) (Echinochloa crusgalli; seedling stage sealing): 9
Huaidao (rice cultivar) plant damage level (Huaidao (rice cultivar)): 0

COC(=O)c1c(NC(=O)[C@H]2C(=O)N(C)C[C@@H]2c2cc(C)cc(C)c2)cnn1C [433′]
Echinochloa phyllopogon activity level (growth control rate) (Echinochloa phyllopogon; seedling stage sealing): 6 (Level 6: growth control rate greater than or equal to 70% and less than 80%)
Echinochloa crusgalli activity level (growth control rate) (Echinochloa crusgalli; seedling stage sealing): 9
Huaidao (rice cultivar) plant damage level (Huaidao (rice cultivar)): 0

CCc1cc(C)cc([C@H]2CN(C)C(=O)[C@@H]2C(=O)Nc2cnn(C(F)F)c2Cl)c1 [438′]
Echinochloa phyllopogon activity level (growth control rate) (Echinochloa phyllopogon; seedling stage sealing): 9
Echinochloa crusgalli activity level (growth control rate) (Echinochloa crusgalli; seedling stage sealing): 9
Huaidao (rice cultivar) plant damage level (Huaidao (rice cultivar)): 2 (Level 2: growth control rate greater than or equal to 10% and less than 20%)

CCc1cc(CC)cc([C@H]2CN(C)C(=O)[C@@H]2C(=O)Nc2cnn(C)c2Cl)c1 [439′]
Echinochloa phyllopogon activity level (growth control rate) (Echinochloa phyllopogon; seedling stage sealing): 9
Echinochloa crusgalli activity level (growth control rate) (Echinochloa crusgalli; seedling stage sealing): 9
Huaidao (rice cultivar) plant damage level (Huaidao (rice cultivar)): 2 (Level 2: growth control rate greater than or equal to 10% and less than 20%)

CN1C[C@H](c2cc(Br)cc(Br)c2)[C@@H](C(=O)Nc2cnn(C)c2Cl)C1=O [440′]
Echinochloa phyllopogon activity level (growth control rate) (Echinochloa phyllopogon; seedling stage sealing): 9
Echinochloa crusgalli activity level (growth control rate) (Echinochloa crusgalli; seedling stage sealing): 9
Huaidao (rice cultivar) plant damage level (Huaidao (rice cultivar)): 0

CN1C[C@H](c2cc(Cl)cc(Cl)c2)[C@@H](C(=O)Nc2cnn(C)c2Cl)C1=O [441′]
Echinochloa phyllopogon activity level (growth control rate) (Echinochloa phyllopogon; seedling stage sealing): 9
Echinochloa crusgalli activity level (growth control rate) (Echinochloa crusgalli; seedling stage sealing): 9
Huaidao (rice cultivar) plant damage level (Huaidao (rice cultivar)): 0

CN1C[C@H](c2cc(Cl)cc(Cl)c2)[C@@H](C(=O)Nc2cnn(C(F)F)c2Cl)C1=O [442′]
Echinochloa phyllopogon activity level (growth control rate) (Echinochloa phyllopogon; seedling stage sealing): 8 (Level 8: growth control rate greater than or equal to 90% and less than 100%)
Echinochloa crusgalli activity level (growth control rate) (Echinochloa crusgalli; seedling stage sealing): 8 (Level 8: growth control rate greater than or equal to 90% and less than 100%)
Huaidao (rice cultivar) plant damage level (Huaidao (rice cultivar)): 0

CN1C[C@H](c2cc(Cl)cc(Cl)c2)[C@@H](C(=O)Nc2cnn(C)c2C2CC2)C1=O [443′]
Echinochloa phyllopogon activity level (growth control rate) (Echinochloa phyllopogon; [1]): 8 (Level 8: growth control rate greater than or equal to 90% and less than 100%)
Echinochloa crusgalli activity level (growth control rate) (Echinochloa crusgalli; [1]): 9
Huaidao (rice cultivar) plant damage level (growth control rate) (Huaidao (rice cultivar)): 0

COc1cc([C@H]2CN(C)C(=O)[C@@H]2C(=O)Nc2cnn(C(F)F)c2Cl)cc(C(F)(F)F)c1 [445′]
Echinochloa phyllopogon activity level (growth control rate) (Echinochloa phyllopogon; [1]): 9
Echinochloa crusgalli activity level (growth control rate) (Echinochloa crusgalli; [1]): 9
Huaidao (rice cultivar) plant damage level (growth control rate) (Huaidao (rice cultivar)): 0

COc1c(C(F)(F)F)ccc([C@H]2CN(C)C(=O)[C@@H]2C(=O)Nc2cnn(C)c2Cl)c1F [446′]
Echinochloa phyllopogon activity level (growth control rate) (Echinochloa phyllopogon; [1]): 9
Echinochloa crusgalli activity level (growth control rate) (Echinochloa crusgalli; [1]): 9
Huaidao (rice cultivar) plant damage level (growth control rate) (Huaidao (rice cultivar)): 0

Cc1cc([C@H]2CN(C)C(=O)[C@@H]2C(=O)Nc2cnn(C)c2Cl)cc(C)c1C [447′]
Echinochloa phyllopogon activity level (growth control rate) (Echinochloa phyllopogon; [1]): 9
Echinochloa crusgalli activity level (growth control rate) (Echinochloa crusgalli; [1]): 9
Huaidao (rice cultivar) plant damage level (growth control rate) (Huaidao (rice cultivar)): 0

Cc1cc([C@H]2CN(C)C(=O)[C@@H]2C(=O)Nc2cnn(C)c2C2CC2)cc(C)c1C [448′]
Echinochloa phyllopogon activity level (growth control rate) (Echinochloa phyllopogon; [1]): 9
Echinochloa crusgalli activity level (growth control rate) (Echinochloa crusgalli; [1]): 9
Huaidao (rice cultivar) plant damage level (growth control rate) (Huaidao (rice cultivar)): 0

CN1C[C@H](c2cccc3c2OC(F)(F)O3)[C@@H](C(=O)Nc2cnn(C)c2Cl)C1=O [450′]
Echinochloa phyllopogon activity level (growth control rate) (Echinochloa phyllopogon; [1]): 9
Echinochloa crusgalli activity level (growth control rate) (Echinochloa crusgalli; [1]): 9
Huaidao (rice cultivar) plant damage level (growth control rate) (Huaidao (rice cultivar)): 0

CCCn1ncc(NC(=O)[C@H]2C(=O)N(C)C[C@@H]2c2cccc(C)c2)c1Cl [462′]
Echinochloa phyllopogon activity level (growth control rate) (Echinochloa phyllopogon; [1]): 9
Echinochloa crusgalli activity level (growth control rate) (Echinochloa crusgalli; [1]): 9
Huaidao (rice cultivar) plant damage level (growth control rate) (Huaidao (rice cultivar)): 0

Cc1cccc([C@H]2CN(C)C(=O)[C@@H]2C(=O)Nc2cnn(C(F)F)c2C)c1 [465′]
Echinochloa phyllopogon activity level (growth control rate) (Echinochloa phyllopogon; [1]): 9
Echinochloa crusgalli activity level (growth control rate) (Echinochloa crusgalli; [1]): 9
Huaidao (rice cultivar) plant damage level (growth control rate) (Huaidao (rice cultivar)): 2 (Level 2: growth control rate greater than or equal to 10% and less than 20%)

C=Cc1c(NC(=O)[C@H]2C(=O)N(C)C[C@@H]2c2cccc(C)c2)cnn1C(F)F [468′]
Echinochloa phyllopogon activity level (growth control rate) (Echinochloa phyllopogon; [1]): 9
Echinochloa crusgalli activity level (growth control rate) (Echinochloa crusgalli; [1]): 9
Huaidao (rice cultivar) plant damage level (growth control rate) (Huaidao (rice cultivar)): 0

CN1C[C@H](c2cccc(C(F)(F)F)c2)[C@@H](C(=O)Nc2cnn(C)c2C(F)F)C1=O [478′]
Echinochloa phyllopogon activity level (growth control rate) (Echinochloa phyllopogon; [1]): 9
Echinochloa crusgalli activity level (growth control rate) (Echinochloa crusgalli; [1]): 9
Huaidao (rice cultivar) plant damage level (growth control rate) (Huaidao (rice cultivar)): 0

CN1C[C@H](c2cccc(C(F)(F)F)c2)[C@@H](C(=O)Nc2cnn(C)c2S(C)(=O)=O)C1=O [480′]
Echinochloa phyllopogon activity level (growth control rate) (Echinochloa phyllopogon; [1]): 9
Echinochloa crusgalli activity level (growth control rate) (Echinochloa crusgalli; [1]): 9
Huaidao (rice cultivar) plant damage level (growth control rate) (Huaidao (rice cultivar)): 1 (Level 1: growth control rate less than 10%)

COc1cccc([C@H]2CN(C)C(=O)[C@@H]2C(=O)Nc2cnn(C)c2C(F)(F)F)c1 [485′]
Echinochloa phyllopogon activity level (growth control rate) (Echinochloa phyllopogon; [1]): 9
Echinochloa crusgalli activity level (growth control rate) (Echinochloa crusgalli; [1]): 9
Huaidao (rice cultivar) plant damage level (growth control rate) (Huaidao (rice cultivar)): 0

Cc1ccc([C@H]2CN(C)C(=O)[C@@H]2C(=O)Nc2cnn(C(F)F)c2Cl)cc1 [486′]
Echinochloa phyllopogon activity level (growth control rate) (Echinochloa phyllopogon; [1]): 9
Echinochloa crusgalli activity level (growth control rate) (Echinochloa crusgalli; [1]): 9
Huaidao (rice cultivar) plant damage level (growth control rate) (Huaidao (rice cultivar)): 2 (Level 2: growth control rate greater than or equal to 10% and less than 20%)

Cc1ccc([C@H]2CN(C)C(=O)[C@@H]2C(=O)Nc2cnn(C(F)F)c2Cl)cc1C [487′]
Echinochloa phyllopogon activity level (growth control rate) (Echinochloa phyllopogon; [1]): 9
Echinochloa crusgalli activity level (growth control rate) (Echinochloa crusgalli; [1]): 9
Huaidao (rice cultivar) plant damage level (growth control rate) (Huaidao (rice cultivar)): 2 (Level 2: growth control rate greater than or equal to 10% and less than 20%)

CN1C[C@H](c2cc(F)cc(F)c2)[C@@H](C(=O)Nc2cnn(C)c2C(F)(F)F)C1=O [489′]
Echinochloa phyllopogon activity level (growth control rate) (Echinochloa phyllopogon; [1]): 9
Echinochloa crusgalli activity level (growth control rate) (Echinochloa crusgalli; [1]): 9
Huaidao (rice cultivar) plant damage level (growth control rate) (Huaidao (rice cultivar)): 0

Cc1cc(C)cc([C@H]2CN(C)C(=O)[C@@H]2C(=O)Nc2cnn(C(F)F)c2C)c1 [494′]
Echinochloa phyllopogon activity level (growth control rate) (Echinochloa phyllopogon; [1]): 9
Echinochloa crusgalli activity level (growth control rate) (Echinochloa crusgalli; [1]): 9
Huaidao (rice cultivar) plant damage level (growth control rate) (Huaidao (rice cultivar)): 2 (Level 2: growth control rate greater than or equal to 10% and less than 20%)

Cc1cc(C)cc([C@H]2CN(C)C(=O)[C@@H]2C(=O)Nc2cnn(C)c2CF)c1 [495′]
Echinochloa phyllopogon activity level (growth control rate) (Echinochloa phyllopogon; [1]): 7 (Level 7: growth control rate greater than or equal to 80% and less than 90%)
Echinochloa crusgalli activity level (growth control rate) (Echinochloa crusgalli; [1]): 9
Huaidao (rice cultivar) plant damage level (growth control rate) (Huaidao (rice cultivar)): 0

C=Cc1c(NC(=O)[C@H]2C(=O)N(C)C[C@@H]2c2cc(C)cc(C)c2)cnn1C(F)F [496′]
Echinochloa phyllopogon activity level (growth control rate) (Echinochloa phyllopogon; [1]): 9
Echinochloa crusgalli activity level (growth control rate) (Echinochloa crusgalli; [1]): 9
Huaidao (rice cultivar) plant damage level (growth control rate) (Huaidao (rice cultivar)): 0

Cc1cc(C)cc([C@H]2CN(C)C(=O)[C@@H]2C(=O)Nc2cnn(C)c2S(C)(=O)=O)c1 [498′]
Echinochloa phyllopogon activity level (growth control rate) (Echinochloa phyllopogon; [1]): 9
Echinochloa crusgalli activity level (growth control rate) (Echinochloa crusgalli; [1]): 9
Huaidao (rice cultivar) plant damage level (growth control rate) (Huaidao (rice cultivar)): 0

CO/N=C/c1c(NC(=O)[C@H]2C(=O)N(C)C[C@@H]2c2cc(C)cc(C)c2)cnn1C [501′]
Echinochloa phyllopogon activity level (growth control rate) (Echinochloa phyllopogon; [1]): 7 (Level 7: growth control rate greater than or equal to 80% and less than 90%)
Echinochloa crusgalli activity level (growth control rate) (Echinochloa crusgalli; [1]): 9
Huaidao (rice cultivar) plant damage level (growth control rate) (Huaidao (rice cultivar)): 0

Cc1cc(C)cc([C@H]2CN(C)C(=O)[C@@H]2C(=O)Nc2cnn(C)c2CO)c1 [502′]
Echinochloa phyllopogon activity level (growth control rate) (Echinochloa phyllopogon; [1]): 7 (Level 7: growth control rate greater than or equal to 80% and less than 90%)
Echinochloa crusgalli activity level (growth control rate) (Echinochloa crusgalli; [1]): 9
Huaidao (rice cultivar) plant damage level (growth control rate) (Huaidao (rice cultivar)): 0
